In patent US4659741A, “β-[2-(halogenobenzyl)-phenoxy]-ethylamine derivatives” (Institut de Recherches Chimiques et Biologiques Appliquees …, priority 1983, dated 1987):
Values after ≈ are worked out from the molar mass of the structure shown. “Also recorded” adds a separate entry of the source. Read-outs that look alike come from different tables or passages of the source. Values belong to the molecule of their own block, whether it stands above or below them.

Legend:
[1] = Toxicity, LD-50 mice (Table VI); details: for LD50: mouse, in vivo
[2] = test system: Candida albicans CIP 1180; assay: Minimal inhibiting concentration (MIC), fungus strain (Table IV); assay type: cell-based; details: for MIC: Candida albicans, CIP1180, Candida albicans CIP 1180; for MIC C: Candida albicans CIP 1180
From the text: (§1) A certain number of compounds according to the invention are given non-restrictively by way of illustration in tables I, II and III hereinafter. The minimal inhibiting concentrations (MIC) of these compounds vis-a-vis a Gram+bacteria (Staphylococcus aureus London) a Gram-bacteria (Escherichia coli) and a fungus (Candida albicans) are given hereinafter in table IV. In table V are tabulated the MIC values of two compounds according to the invention which are particularly interesting [compound B 673 (example 26) and compound B 674 (example 29)] vis-a-vis several strains.
(§2) The strains used are those of the catalogues of the "Institut Pasteur" of Paris (abbreviation: CIP), the "Centre International de Distribution de Souches et d'Information sur les Types Microbiens de Lausanne" (abbreviation: La) and the "American Type Culture Collection" (abbreviation: ATCC).
C = fungus strain: Candida albicans CIP 1180

[3] = test system: Escherichia coli CIP 54.8; assay: Minimal inhibiting concentration (MIC), Gram- strain (Table IV); assay type: cell-based; details: CIP54
From the text: as §1, §2
G^- = Gram^- strain: Escherichia coli CIP 54.8

[4] = test system: Staphylococcus aureus London CIP A.238; assay: Minimal inhibiting concentration (MIC), Gram+ strain (Table IV); assay type: cell-based; details: for MIC: Staphylococcus aureus
From the text: as §1, §2
G^+ = Gram^+ strain: Staphylococcus aureus London CIP A.238

[5] = test system: Streptococcus pyogenes CIP A.241; assay: MIC vis-a-vis several strains (Table V); assay type: cell-based; details: CIPA.241
From the text: as §1, §2

[6] = test system: Haemophilus influenzae CIP 5293; assay: MIC vis-a-vis several strains (Table V); assay type: cell-based; details: CIP5293
From the text: as §1, §2

[7] = test system: Bacillus subtilis ATCC 6633; assay: MIC vis-a-vis several strains (Table V); assay type: cell-based; details: ATCC6633
From the text: as §1, §2

[8] = test system: Corynebacterium diphteriae CIP A.102; assay: MIC vis-a-vis several strains (Table V); assay type: cell-based; details: CIPA.102
From the text: as §1, §2

[9] = test system: Neisseria gonorrhoeae CIP A.52; assay: MIC vis-a-vis several strains (Table V); assay type: cell-based; details: CIPA.52
From the text: as §1, §2

[10] = test system: Streptococcus faecalis CIP 53.152; assay: MIC vis-a-vis several strains (Table V); assay type: cell-based; details: Enterococcus faecalis, CIP53
From the text: as §1, §2

[11] = test system: Streptococcus pyogenes la 147; assay: MIC vis-a-vis several strains (Table V); assay type: cell-based; details: LA147
From the text: as §1, §2

[12] = test system: Neisseria meningitidis CIP 7310; assay: MIC vis-a-vis several strains (Table V); assay type: cell-based; details: CIP7310
From the text: as §1, §2

[13] = test system: Branhamella catarrhalis la 987; assay: MIC vis-a-vis several strains (Table V); assay type: cell-based; details: Moraxella catarrhalis, LA987
From the text: as §1, §2

[14] = test system: Klebsiella pneumoniae la 433; assay: MIC vis-a-vis several strains (Table V); assay type: cell-based; details: LA433
From the text: as §1, §2

[15] = test system: Listeria monocytogenes CIP 54153; assay: MIC vis-a-vis several strains (Table V); assay type: cell-based; details: CIP54153
From the text: as §1, §2

[16] = test system: Diplococcus pneumoniae la 209; assay: MIC vis-a-vis several strains (Table V); assay type: cell-based; details: Streptococcus pneumoniae, LA209
From the text: as §1, §2

[17] = test system: Staphylococcus aureus ATCC 6538 P; assay: MIC vis-a-vis several strains (Table V); assay type: cell-based; details: ATCC6538
From the text: as §1, §2

[18] = test system: Streptococcus pyogenes CIP 56.42; assay: MIC vis-a-vis several strains (Table V); assay type: cell-based; details: CIP56
From the text: as §1, §2

[19] = test system: Streptococcus pyogenes CIP 5641; assay: MIC vis-a-vis several strains (Table V); assay type: cell-based; details: CIP5641
From the text: as §1, §2

[20] = cited from earlier work
Gram+ bacteriae = details: infectious diseases caused by Gram+ bacteriae; cited from earlier work

Molecule: CCCCCCCCCCCCCCCC[N+](C)(C)C [Example A-2, cetrymonium chloride, reference compound]
- LD50 [1]: 750 mg/kg

Molecule: CCCC[N+](CC)(CC)CCOc1ccc(C(C)(C)CC)cc1Cc1ccc(Cl)cc1Cl.[Br-] [Example 23, N,N-diethyl-N-{2-[2-(2,4-dichlorobenzyl)-4-(1,1-dimethylpropyl)-phenoxy]-ethyl}-N-butylammonium bromide]
- MIC [2]: 0.25 µg/mL
- MIC [3]: 4 µg/mL
- LD50 [1]: > 1000 mg/kg
- MIC [4]: 0.06 µg/mL

Molecule: CC[N+](CC)(CCOc1ccc(C(C)(C)C)cc1Cc1ccc(Cl)cc1Cl)Cc1ccccc1 [Example 29, N,N-diethyl-N-{2-[2-(2,4-dichlorobenzyl)-tertiobutylphenoxy]-ethyl}-N-benzylammonium chloride]
- MIC [2]: 0.125 µg/mL
- MIC [3]: 4 µg/mL
- LD50 [1]: > 1000 mg/kg
- MIC [5]: 0.78 µg/mL
- MIC [6]: 0.78 µg/mL
- MIC [7]: 0.78 µg/mL
- MIC [8]: 3.12 µg/mL
- MIC [9]: 0.78 µg/mL
- MIC [10]: 0.78 µg/mL
- MIC [11]: 0.78 µg/mL
- MIC [12]: 0.78 µg/mL
- MIC [13]: 0.78 µg/mL
- MIC [14]: 6.25 µg/mL
- MIC [15]: 0.78 µg/mL
- MIC [16]: 0.78 µg/mL
- MIC [17]: 0.78 µg/mL
- MIC [18]: 0.78 µg/mL
- MIC [19]: 0.78 µg/mL
- MIC [4]: 0.015 µg/mL

Molecule: CCCCc1ccc(OCC[N+](CC)(CC)Cc2ccccc2)c(Cc2ccc(Cl)cc2Cl)c1 [Example 31]
- MIC [2]: 0.125 µg/mL
- MIC [3]: 4 µg/mL
- LD50 [1]: > 1000 mg/kg
- MIC [4]: 0.031 µg/mL

Molecule: CCC(C)(C)c1ccc(OCC[N+](CC)(CC)Cc2ccccc2)c(Cc2ccc(Cl)cc2Cl)c1 [Example 30]
- MIC [2]: 0.25 µg/mL
- MIC [3]: 4 µg/mL
- LD50 [1]: > 1000 mg/kg
- MIC [4]: 0.004 µg/mL

Molecule: benzalkonium chloride [Example A-1, reference compound]
- LD-50 mice ([1]; mice, route not given): 550 mg/kg

Molecule: CC(C)(C)CC(C)(C)c1ccc(O)c(Cc2ccc(Cl)cc2Cl)c1 [B.11, 2-(2,4-dichlorobenzyl)-4-(1,1,3,3-tetramethylbutyl)-phenol]
- water solubility / dispersibility [20]: not naturally water soluble nor water dispersible
- effectiveness in the treatment of infectious diseases (Gram+ bacteriae): particularly effective in the treatment of infectious diseases caused by Gram+ bacteriae

Molecule: CCCC[N+](CC)(CC)CCOc1ccc(C(C)(C)CC(C)(C)C)cc1Cc1ccc(Cl)cc1Cl [Example 24]
- MIC [2]: 1 µg/mL
- MIC [3]: 16 µg/mL
- MIC [4]: 0.015 µg/mL

Molecule: CC[N+](CC)(CCOc1ccc(C(C)(C)CC(C)(C)C)cc1Cc1ccc(Cl)cc1Cl)Cc1ccccc1 [Example 33]
- MIC [2]: 1 µg/mL
- MIC [4]: 0.03 µg/mL

Molecule: CC(C)c1ccc(OCCN(C)C)c(Cc2ccc(Cl)c(Cl)c2)c1 [Example 10]
- MIC [3]: 64 µg/mL (≈ 175 µM)
- MIC [4]: 16 µg/mL (≈ 43.7 µM)

Molecule: CC[N+](CC)(CCOc1ccc(C)cc1Cc1ccc(Cl)cc1Cl)Cc1ccccc1 [Example 26]
- MIC [2]: 4 µg/mL
- MIC [3]: 32 µg/mL
- LD50 [1]: > 1000 mg/kg
- MIC [5]: 0.78 µg/mL
- MIC [6]: 0.78 µg/mL
- MIC [7]: 1.56 µg/mL
- MIC [8]: 25 µg/mL
- MIC [9]: 0.78 µg/mL
- MIC [10]: 3.12 µg/mL
- MIC [11]: 0.78 µg/mL
- MIC [12]: 0.78 µg/mL
- MIC [13]: 0.78 µg/mL
- MIC [14]: 25 µg/mL
- MIC [15]: 1.56 µg/mL
- MIC [16]: 1.56 µg/mL
- MIC [17]: 0.78 µg/mL
- MIC [18]: 0.78 µg/mL
- MIC [19]: 0.78 µg/mL
- MIC [4]: 0.25 µg/mL

Molecule: CCc1ccc(OCC[N+](CC)(CC)Cc2ccccc2)c(Cc2ccc(Cl)cc2Cl)c1 [Example 27]
- MIC [2]: 0.5 µg/mL
- MIC [3]: 8 µg/mL
- LD50 [1]: 850 mg/kg
- MIC [4]: 0.125 µg/mL

Second part, led by results:

- MIC [2]: 0.5 µg/mL
- MIC [3]: 8 µg/mL
- MIC [4]: 0.125 µg/mL
Molecule: CCC(C)(C)c1ccc(OCC[N+](C)(CC)CC)c(Cc2ccc(Cl)cc2Cl)c1.[I-] [Example 21, N,N-diethyl-N-{2-[2-(2,4-dichlorobenzyl)-4-(1,1-dimethylpropyl)-phenoxy]-ethyl}-N-methylammonium iodide]

- MIC [2]: 0.25 µg/mL
- MIC [3]: 64 µg/mL
- MIC [4]: 0.125 µg/mL
Molecule: CC[N+](C)(CC)CCOc1ccc(C(C)(C)CC(C)(C)C)cc1Cc1ccc(Cl)cc1Cl [Example 22]

- MIC C ([2]; listed as Ex 12): 4 μ g/ml
- MIC G^+ ([4]; listed as Ex 12): 4 μ g/ml
Molecule: CCN(CC)CCOc1ccc(C(C)C)cc1Cc1ccc(Cl)cc1Cl [Example 12]
- spasmolytic properties (Spasmolytic properties; listed as B 805): beneficial spasmolytic properties; also recorded: The most interesting compound, as spasmolytic agent

- MIC [2]: 64 µg/mL (≈ 157 µM)
- MIC [3]: 64 µg/mL (≈ 157 µM)
- MIC [4]: 64 µg/mL (≈ 157 µM)
Molecule: CCCCc1ccc(OCCN(CC)CC)c(Cc2ccc(Cl)cc2Cl)c1 [Example 7]

- MIC [4]: 50 µg/mL (≈ 122 µM)
Molecule: CCN(CC)CCOc1ccc(C(C)(C)C)cc1Cc1ccc(Cl)cc1Cl [Example 5, β-[2-(2,4-dichlorobenzyl)-4-tertiobutylphenoxy]-N,N-diethyl-ethylamin]

- MIC [2]: 8 µg/mL (≈ 20.3 µM)
- MIC G^+ ([4]; listed as Ex 3): 16 μ g/ml
Molecule: CCN(CC)CCOc1ccc(C(C)C)cc1Cc1ccc(Cl)cc1Cl [Example 3]

- MIC [2]: 64 µg/mL (≈ 147 µM)
- MIC [3]: 64 µg/mL (≈ 147 µM)
- MIC [4]: 64 µg/mL (≈ 147 µM)
Molecule: CCCCCCc1ccc(OCCN(CC)CC)c(Cc2ccc(Cl)cc2Cl)c1 [Example 8]

- MIC [2]: 0.25 µg/mL
- MIC [3]: 8 µg/mL
- MIC [4]: 0.015 µg/mL
Molecule: CC[N+](CC)(CCOc1ccc(C(C)C)cc1Cc1ccc(Cl)cc1Cl)Cc1ccccc1 [Example 28]

- MIC C ([2]; listed as Ex 13): 0.5 μ g/ml
- MIC G^+ ([4]; listed as Ex 13): 8 μ g/ml
Molecule: CCC(C)c1ccc(OCCN(CC)CC)c(Cc2ccc(Cl)cc2Cl)c1 (centres unmarked) [Example 13]
- spasmolytic properties (Spasmolytic properties): beneficial spasmolytic properties

- MIC C ([2]; listed as Ex 2): 64 μ g/ml
- MIC G^+ ([4]; listed as Ex 2): 64 μ g/ml
Molecule: CCc1ccc(OCCN(CC)CC)c(Cc2ccc(Cl)cc2Cl)c1 [Example 2]

- MIC [2]: 16 µg/mL (≈ 37.9 µM)
- MIC [4]: 8 µg/mL (≈ 18.9 µM)
Molecule: CCN(CC)CCOc1ccc(C(C)(C)CC)cc1Cc1ccc(Cl)cc1Cl [Example 6, β-[2-(2,4-dichlorobenzyl)-4-(1,1-dimethylpropyl)-phenoxy]-N,N-diethylethylamine]

- MIC G^+ ([4]; listed as Ex 15): 16 μ g/ml
Molecule: CCN(CC)CCOc1ccc(C(C)(C)CC(C)(C)C)cc1Cc1ccc(Cl)cc1Cl [Example 15]
- spasmolytic properties (Spasmolytic properties): beneficial spasmolytic properties

- MIC [2]: 0.5 µg/mL
- MIC [3]: 16 µg/mL
- MIC [4]: 0.125 µg/mL
Molecule: CCCCCCc1ccc(OCC[N+](CC)(CC)Cc2ccccc2)c(Cc2ccc(Cl)cc2Cl)c1 [Example 32]

- MIC [4]: 25 µg/mL (≈ 53.8 µM)
Molecule: CCN(CC)CCOc1ccc(C(C)(C)CC(C)(C)C)cc1Cc1ccc(Cl)cc1Cl [Example 9]

- MIC [2]: 4 µg/mL
- MIC [3]: 64 µg/mL
- MIC [4]: 8 µg/mL
Molecule: CCN(CC)CCOc1ccc(C(C)(C)CC)cc1Cc1ccc(Cl)cc1Cl.Cl [Example 14, β-[2-(2,4-dichlorobenzyl)-4-(1,1-dimethylpropyl)-phenoxy]-N,N-diethylethylamine hydrochloride]
- spasmolytic properties (Spasmolytic properties): beneficial spasmolytic properties

- MIC C ([2]; listed as Ex 4): 16 μ g/ml
- MIC G^+ ([4]; listed as Ex 4): 32 μ g/ml
Molecule: CCC(C)c1ccc(OCCN(CC)CC)c(Cc2ccc(Cl)cc2Cl)c1 (centres unmarked) [Example 4]

- MIC C ([2]; listed as Ex 11): 8 μ g/ml
- MIC G^+ ([4]; listed as Ex 11): 8 μ g/ml
Molecule: CCc1ccc(OCCN(CC)CC)c(Cc2ccc(Cl)cc2Cl)c1 [Example 11]
- spasmolytic properties (Spasmolytic properties): beneficial spasmolytic properties

- MIC [3]: 50 µg/mL (≈ 136 µM)
- MIC [4]: 12.5 µg/mL (≈ 34.1 µM)
Molecule: CCN(CC)CCOc1ccc(C)cc1Cc1ccc(Cl)cc1Cl [Example 1]
